Laboratory results reported in ChEMBL document CHEMBL2086254, “Synthesis and identification of novel indolo[2,3-a]pyrimido[5,4-c]carbazoles as a new class of anti-cancer agents” (Eur J Med Chem, 2012).

Biological target: Cyclin-dependent kinase 2 (Homo sapiens, UniProt P24941)
Test: Inhibition of CDK2

- IC50: < 0.06 µM
SMILES: Cn1c2ccccc2c2c3c(c4c5ccccc5n(CC(O)CO)c4c21)C(=O)NC3=O (stereo unspecified)
